Measured values published in patent US11524960B2, “Heterobicyclic inhibitors of MAT2A and methods of use for treating cancer” (AGIOS PHARMACEUTICALS, INC., priority 2018, dated 2022).

Molecular target: T1, MAT2A homodimer (Homo sapiens, UniProt P31153)
T1 construct: inferred from Ni sepharose purification and imidazole elution; made in house; host or cells: Sf9 insect cells, recombinant baculovirus (Bac to Bac, pFASTBAC1)
Test: Biochemical assay: inhibition of MAT2A (phosphate release, PiColorLock Gold)
Details: MAT2A IC50 score; read-out: Enzyme Inhibition (Example 275)
Method: Mat2A protein was expressed by recombinant baculovirus in SF9 infected cells using the Bac to Bac system cloned into the pFASTBAC1 vector (Invitrogen, Carlsbad, Calif.). Recombinant MAT2A was isolated from the cell lysate of 150 g of infected cells using HP Ni sepharose column chromatography. Recombinant MAT2A homodimer was eluted with 250 and 500 mM imidazole, and fractions containing MAT2A were identified by sodium dodecyl sulfate polyacrylamide gel electrophoresis and pooled.
For determination of the inhibitory potency of compounds against the MAT2A homodimer, protein was diluted to […] in assay buffer (50 mM Tris, pH 8.0, 50 mM KCl, 15 mM MgCl2, 0.3 mM EDTA, 0.005% [w/v] bovine serum albumin [BSA]). Test compound was prepared in 100% dimethyl sulfoxide (DMSO) at 50× the desired final concentration. […] of compound dilution was added to 40 μL of enzyme dilution and the mixture was allowed to equilibrate for 60 minutes at 25° C. The enzymatic assay was initiated by the addition of 10 μL of substrate mix (500 μM ATP, pH 7.0, 400 μM L-methionine in 1× assay buffer), and the mixture was incubated for a further 60 minutes at 25° C. The reaction was halted and the liberated phosphate released by the enzyme in stoichiometric amounts by the production of S-adenosyl methionine (SAM) was measured using the PiColorLock Gold kit (Innova Biosciences, UK). Absolute product amounts were determined by comparison to a standard curve of potassium phosphate buffer, pH 8.0.

T1 sequence (P31153 whole entry): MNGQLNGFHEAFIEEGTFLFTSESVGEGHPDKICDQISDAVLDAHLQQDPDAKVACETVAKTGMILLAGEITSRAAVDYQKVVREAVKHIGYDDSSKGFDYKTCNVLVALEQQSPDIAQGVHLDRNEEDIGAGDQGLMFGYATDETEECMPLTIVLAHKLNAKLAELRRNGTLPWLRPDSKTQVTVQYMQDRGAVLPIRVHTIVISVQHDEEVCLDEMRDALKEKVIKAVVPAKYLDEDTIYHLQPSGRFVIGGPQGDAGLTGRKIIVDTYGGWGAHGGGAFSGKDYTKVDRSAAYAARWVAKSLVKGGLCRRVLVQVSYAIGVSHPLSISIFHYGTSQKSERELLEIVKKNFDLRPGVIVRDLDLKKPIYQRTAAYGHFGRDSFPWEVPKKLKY

IC50 [nM] | SMILES
100 to 1000 | COc1ccc(-n2cc3cnc(NCC(F)(F)F)nc3c(-c3ccc(N4CCC4)cc3)c2=O)cc1 [Example 204, 8-(4-(azetidin-1-yl)phenyl)-6-(4-methoxyphenyl)-2-((2,2,2-trifluoroethyl)amino)pyrido[4,3-d]pyrimidin-7(6H)-one]
100 to 1000 | Cn1cc(-n2cc3cnc(NCC(F)(F)F)nc3c(-c3ccc(Cl)cc3)c2=O)ccc1=O [Example 140, 8-(4-chlorophenyl)-6-(1-methyl-6-oxo-1,6-dihydropyridin-3-yl)-2-((2,2,2-trifluoroethyl)amino)pyrido[4,3-d]pyrimidin-7(6H)-one]
1000 to 10000 | COc1ccc(N2Cc3cnc(NCC4CC4)nc3C3(CCN(Cc4cn[nH]c4)C3)C2=O)cc1 (centres unmarked) [Example 102, 1′-((1H-pyrazol-4-yl)methyl)-2-((cyclopropylmethyl)amino)-6-(4-methoxyphenyl)-5H-spiro[pyrido[4,3-d]pyrimidine-8,3′-pyrrolidin]-7(6H)-one]
< 100 | Cn1cc2cc(-n3cc4cnc(NC5CC5)nc4c(-c4ccc(Cl)cc4)c3=O)ccc2n1 [Example 173, 8-(4-chlorophenyl)-2-(cyclopropylamino)-6-(2-methyl-2H-indazol-5-yl)pyrido[4,3-d]pyrimidin-7(6H)-one]
100 to 1000 | Cc1nc2cc(-n3cc4cnc(NCC(F)(F)F)nc4c(-c4ccc(Cl)cc4)c3=O)ccc2o1 [Example 138, 8-(4-chlorophenyl)-6-(2-methylbenzo[d]oxazol-5-yl)-2-((2,2,2-trifluoroethyl)amino)pyrido[4,3-d]pyrimidin-7(6H)-one]
100 to 1000 | COc1ccc(-c2c(=O)n(-c3ccc(=O)n(C)c3)cc3cnc(NCC(F)(F)F)nc23)cc1 [Example 194, 8-(4-methoxyphenyl)-6-(1-methyl-6-oxo-1,6-dihydropyridin-3-yl)-2-((2,2,2-trifluoroethyl)amino)pyrido[4,3-d]pyrimidin-7(6H)-one]
< 100 | Cn1cc2cc(-n3cc4cnc(NC5CCC5)nc4c(-c4ccc(OC(F)F)cc4)c3=O)ccc2n1 [Example 174, 2-(cyclobutylamino)-8-(4-(difluoromethoxy)phenyl)-6-(2-methyl-2H-indazol-5-yl)pyrido[4,3-d]pyrimidin-7(6H)-one]
1000 to 10000 | O=c1c(-c2ccc(C3CC3)cc2)c2nc(NCC(F)(F)F)ncc2cn1-c1ccc2nc(C(F)(F)F)ccc2c1 [Example 163, 8-(4-cyclopropylphenyl)-2-((2,2,2-trifluoroethyl)amino)-6-(2-(trifluoromethyl)quinolin-6-yl)pyrido[4,3-d]pyrimidin-7(6H)-one]
< 100 | CNc1ncc2cn(-c3ccc4ncccc4c3)c(=O)c(-c3ccc(OC(F)F)cc3)c2n1 [Example 184, 8-(4-(difluoromethoxy)phenyl)-2-(methylamino)-6-(quinolin-6-yl)pyrido[4,3-d]pyrimidin-7(6H)-one]
100 to 1000 | COc1ccc(-c2c(=O)n(-c3ccc4ncncc4c3)cc3cnc(NCC(F)(F)F)nc23)cc1 [Example 146, 8-(4-methoxyphenyl)-6-(quinazolin-6-yl)-2-((2,2,2-trifluoroethyl)amino)pyrido[4,3-d]pyrimidin-7(6H)-one]
100 to 1000 | O=C1N(c2cnoc2)Cc2cnc(NCC3CC3)nc2C12CCN(Cc1ccccc1F)C2 (centres unmarked) [Example 121, 2-((cyclopropylmethyl)amino)-1′-(2-fluorobenzyl)-6-(isoxazol-4-yl)-5,6-dihydro-7H-spiro[pyrido[4,3-d]pyrimidine-8,3′-pyrrolidin]-7-one]
100 to 1000 | COc1ccc(N2Cc3cnc(NCC(F)(F)F)nc3C3(CCN(Cc4cc[nH]n4)C3)C2=O)cc1 (centres unmarked) [Example 110]
< 100 | COc1ccc(-c2c(=O)n(-c3cn[nH]c3)cc3cnc(NCC(F)(F)F)nc23)cc1 [Example 208, 8-(4-methoxyphenyl)-6-(H-pyrazol-4-yl)-2-((2,2,2-trifluoroethyl)amino)pyrido[4,3-d]pyrimidin-7(6H)-one]
100 to 1000 | COc1ccc(N2Cc3cnc(NC4CCC4)nc3C3(CCN(Cc4cc[nH]n4)C3)C2=O)cc1 (centres unmarked) [Example 112, 1′-((1H-pyrazol-3-yl)methyl)-2-(cyclobutylamino)-6-(4-methoxyphenyl)-5H-spiro[pyrido[4,3-d]pyrimidine-8,3′-pyrrolidin]-7(6H)-one]
1000 to 10000 | Cn1cc2cc(-n3cc4cnc(NCC(F)(F)F)nc4c(-c4ccc(Cl)cc4)c3=O)cnc2n1 [Example 126, 8-(4-chlorophenyl)-6-(2-methyl-2H-pyrazolo[3,4-b]pyridin-5-yl)-2-((2,2,2-trifluoroethyl)amino)pyrido[4,3-d]pyrimidin-7(6H)-one]
1000 to 10000 | CCNc1ncc2c(n1)C1(CCN(Cc3cc[nH]n3)C1)C(=O)N(c1ccc(OC)cc1)C2 (centres unmarked) [Example 111, 1′-((1H-pyrazol-3-yl)methyl)-2-(ethylamino)-6-(4-methoxyphenyl)-5H-spiro[pyrido[4,3-d]pyrimidine-8,3′-pyrrolidin]-7(6H)-one]
< 100 | O=c1c(-c2ccc(Cl)cc2)c2nc(NCC(F)(F)F)ncc2cn1-c1ccc2nnccc2c1 [Example 131, 8-(4-chlorophenyl)-6-(cinnolin-6-yl)-2-(2,2,2-trifluoroethylamino)pyrido[4,3-d]pyrimidin-7(6)-one]
< 100 | O=c1c(-c2ccc(Cl)cc2)c2nc(NCC(F)(F)F)ncc2cn1-c1ccc2nccn2c1 [Example 134, 8-(4-chlorophenyl)-6-(imidazo[1,2-a]pyridin-6-yl)-2-(2,2,2-trifluoroethylamino)pyrido[4,3-d]pyrimidin-7(6H)-one]
< 100 | COc1ccc(-n2cc3ccc(NCC(F)(F)F)nc3c(-c3ccc(Cl)cc3)c2=O)cc1 [Example 238, 8-(4-chlorophenyl)-6-(4-methoxyphenyl)-2-(2,2,2-trifluoroethylamino)-1,6-naphthyridin-7(6H)-one]
< 100 | O=c1c(-c2ccc(Cl)cc2)c2nc(NCC(F)(F)F)ncc2cn1-c1ccn2nccc2c1 [Example 130, 8-(4-chlorophenyl)-6-(pyrazolo[1,5-a]pyridin-5-yl)-2-(2,2,2-trifluoroethylamino)pyrido[4,3-d]pyrimidin-7(6H)-one]
100 to 1000 | O=C1N(c2cn[nH]c2)Cc2cnc(NCC3CC3)nc2C12CCN(Cc1ccccc1F)C2 (centres unmarked) [Example 122, 2-((cyclopropylmethyl)amino)-1′-(2-fluorobenzyl)-6-(1H-pyrazol-4-yl)-5,6-dihydro-7H-spiro[pyrido[4,3-d]pyrimidine-8,3′-pyrrolidin]-7-one]
1000 to 10000 | COc1cc(CN2Cc3cnc(NCC4CC4)nc3C3(CCN(Cc4ccccc4F)C3)C2=O)ccn1 (centres unmarked) [Example 119, 2-((cyclopropylmethyl)amino)-1′-(2-fluorobenzyl)-6-((2-methoxypyridin-4-yl)methyl)-5,6-dihydro-7H-spiro[pyrido[4,3-d]pyrimidine-8,3′-pyrrolidin]-7-one]
100 to 1000 | O=c1c(-c2ccc(Cl)cc2)c2nc(NCC(F)(F)F)ncc2cn1-c1ccc2nncn2c1 [Example 136, 6-([1,2,4]triazolo[4,3-a]pyridin-6-yl)-8-(4-chlorophenyl)-2-((2,2,2-trifluoroethyl)amino)pyrido[4,3-d]pyrimidin-7(6H)-one]
100 to 1000 | O=C1N(c2ccc3nc[nH]c3c2)Cc2cnc(NCC3CC3)nc2C12CCN(Cc1cc[nH]n1)C2 (centres unmarked) [Example 109, 1′-((H-pyrazol-3-yl)methyl)-6-(1H-benzo[d]imidazol-6-yl)-2-((cyclopropylmethyl)amino)-5H-spiro[pyrido[4,3-d]pyrimidine-8,3′-pyrrolidin]-7(6H)-one]
< 100 | CCNc1ncc2cn(-c3ccc4nn(C)cc4c3)c(=O)c(-c3ccc(OC(F)(F)F)cc3)c2n1 [Example 170, 2-(ethylamino)-6-(2-methyl-2H-indazol-5-yl)-8-(4-(trifluoromethoxy)phenyl)pyrido[4,3-d]pyrimidin-7(6H)-one]
< 100 | Cc1nc2cc(-n3cc4cnc(NCC(F)(F)F)nc4c(-c4ccc(OC(F)F)cc4)c3=O)ccc2o1 [Example 149, 8-(4-(difluoromethoxy)phenyl)-6-(2-methylbenzo[d]oxazol-5-yl)-2-((2,2,2-trifluoroethyl)amino)pyrido[4,3-d]pyrimidin-7(6H)-one]
< 100 | Cn1cnc2ccc(-n3cc4cnc(OCC(F)(F)F)nc4c(-c4ccc(OC(F)F)cc4)c3=O)cc21 [Example 263, 8-(4-(difluoromethoxy)phenyl)-6-(1-methyl-1H-benzo[d]imidazol-6-yl)-2-(2,2,2-trifluoroethoxy)pyrido[4,3-d]pyrimidin-7(6H)-one]
1000 to 10000 | COc1ccc(N2Cc3cnc(NCC(F)(F)F)nc3C3(CCC(O)CC3)C2=O)cc1 (centres unmarked) [Example 116, 4-hydroxy-6′-(4-methoxyphenyl)-2′-((2,2,2-trifluoroethyl)amino)-5′H-spiro[cyclohexane-1,8′-pyrido[4,3-d]pyrimidin]-7′(6′H)-one]
< 100 | O=c1c(-c2ccc(C3CC3)cc2)c2nc(OCC(F)(F)F)ncc2cn1-c1ccc2ncccc2c1 [Example 267, 8-(4-cyclopropylphenyl)-6-(quinolin-6-yl)-2-(2,2,2-trifluoroethoxy)pyrido[4,3-d]pyrimidin-7(6H)-one]
